Reference: US20020068838A1, “AROMATIC AMIDES, THEIR PREPARATION PROCESS AND THEIR USE AS PESTICIDES” (priority 1997, published 2002)

Legend:
Assay type in all cases: in vivo
Spodoptera littoralis = test: Study on Spodoptera littoralis (haricot leaf dip test); details: starting from a dose of 300 ppm, after seven days, 25 C
Procedure: The product was dissolved at the desired concentration in an acetone-water mixture (50-50). Haricot leaves (Phaseolus vulgaris, var. […]) were immersed for five seconds in the solution, then left to dry in a Petri dish for one hour. Ten larvae of Spodoptera littoralis were then added to each dish. These were kept at a temperature of 25 C., with a photoperiod of twelve hours. After seven days, the mortality of the larvae was checked and the foliar surface consumed was evaluated.

Heliothis virescens = test: Study on Heliothis virescens (artificial medium surface treatment); details: starting from a dose of 300 ppm; neonate larva; after seven days; 25 C
Procedure: The product was dissolved at the desired concentration in an acetone-water mixture (50-50). 50 μl of solution were deposited on the surface of a small well containing approximately 2 grams of plant-based artificial medium. One neonate larva of Heliothis virescens was then introduced into each well, which was sealed with a sheet of cellophane. The tests were kept at a temperature of 25 C., with a photoperiod of twelve hours. The mortality of the larvae was checked after seven days.

Phaedon cochleariae = test: Study on Phaedon cochleariae (foliar disk dip test, Chinese cabbage); details: starting from a dose of 300 ppm; adults; after seven days; 25 C
Procedure: The product was dissolved at the desired concentration in an acetone-water mixture (50-50). Foliar disks of Chinese cabbage (Brassica pekinensis) were immersed for five seconds in the solution, then left to dry for one hour. Ten adults (a mixture of males and females) were added into a Petri dish containing a foliar disk each. These were kept at a temperature of 25 C., with a photoperiod of twelve hours. After seven days, the mortality of the insects was checked and the foliar surface consumed was evaluated.

[1] = system: Leptinotarsa decemlineata; test: Study on Leptinotarsa decemlineata (aubergine foliar disk dip test); details: starting from a dose of 300 ppm; larvae (3rd stage); after four days; 25 C
Procedure: The product was dissolved at the desired concentration in an acetone-water mixture (50-50). Foliar disks of aubergine were immersed in the solution, then left to dry for one hour. Ten larvae (3rd stage) were added into a Petri dish each containing a foliar disk. These were kept at a temperature of 25 C. After four days, the mortality of the insects was checked.

Compound: Cc1ccccc1NC(=O)c1ccc(CC(F)=Cc2ccc(Cl)c(Cl)c2)cc1 [Example 2]
- activity (mortality of the larvae and foliar surface consumed) (Spodoptera littoralis): good activity
- activity (mortality of the larvae) (Heliothis virescens): good activity

Compound: CC(=CCc1ccc(C(=O)Nc2ccccc2C)cc1)c1ccc(Cl)c(Cl)c1 [Example 5, 4-[3-(3,4-dichlorophenyl)-2-butenyl]-N-(2-methylphenyl)-benzamide]
- activity (mortality of the larvae and foliar surface consumed) (Spodoptera littoralis): good activity
- activity (mortality of the larvae) (Heliothis virescens): good activity

Compound: Cc1ccccc1NC(=O)c1ccc(CC=Cc2ccc(Cl)c(Cl)c2)cc1 [Example 7, 4-[3-(3,4-dichlorophenyl)-2-propenyl]-N-(2-methylphenyl)-benzamide]
- activity (mortality of the larvae and foliar surface consumed) (Spodoptera littoralis): good activity
- activity (mortality of the larvae) (Heliothis virescens): good activity

Compound: Cc1ccccc1NC(=O)c1ccc(CC=C(Cl)c2ccc(Cl)c(Cl)c2)cc1 [Example 6, 4-[3-chloro-3-(3,4-dichlorophenyl)-2-propenyl]-N-(2-methylphenyl)-benzamide]
- activity (mortality of the insects and foliar surface consumed) (Phaedon cochleariae): good activity
- activity (mortality of the larvae and foliar surface consumed) (Spodoptera littoralis): good activity
- activity (mortality of the larvae) (Heliothis virescens): good activity
- activity (mortality of the insects) [1]: very interesting activity

Compound: Cc1ccccc1NC(=O)c1ccc(CC(F)Cc2ccc(Cl)c(Cl)c2)cc1 (stereo not drawn) [Example 1, 4-[3-(3,4-dichlorophenyl)-2-fluoropropyl]-N-(2-methylphenyl)-benzamide]
- activity (mortality of the larvae and foliar surface consumed) (Spodoptera littoralis): good activity
- activity (mortality of the larvae) (Heliothis virescens): good activity
